# According to patent publication US5220042A, “1,4-benzoquinone derivatives and benzene derivatives, and process for preparing the same” (priority 1984, dated 1993):
# Where two headings read alike, the source gives them in different places.
# Tests used:
# [1] = molecular target: T1, 5-lipoxygenase (Cavia porcellus, UniProt A0A286X958); experiment: 5-Lipoxygenase inhibitory activity (conversion of 14C-arachidonic acid to 5-HETE) in guinea pig peritoneal exudate cells; type: cell-based, guinea pig (Hartley strain); conditions: read-out: inhibition ratio (%) of 5-lipoxygenase activity; for inhibition at 30 µM: concentration 3 × 10^-5 M; for inhibition at 3 µM: concentration 3 × 10^-6 M; for inhibition at 10 µM: concentration 10^-5 M; for inhibition at 1 µM: concentration 10^-6 M; for inhibition at 0.3 µM: concentration 3 × 10^-7 M; for inhibition at 0.1 µM: concentration 10^-7 M
# T1 construct: endogenous in cells; host or cells: guinea pig (Hartley strain) casein-elicited peritoneal exudate cells, intact cell suspension
# T1 sequence (A0A286X958 1-674): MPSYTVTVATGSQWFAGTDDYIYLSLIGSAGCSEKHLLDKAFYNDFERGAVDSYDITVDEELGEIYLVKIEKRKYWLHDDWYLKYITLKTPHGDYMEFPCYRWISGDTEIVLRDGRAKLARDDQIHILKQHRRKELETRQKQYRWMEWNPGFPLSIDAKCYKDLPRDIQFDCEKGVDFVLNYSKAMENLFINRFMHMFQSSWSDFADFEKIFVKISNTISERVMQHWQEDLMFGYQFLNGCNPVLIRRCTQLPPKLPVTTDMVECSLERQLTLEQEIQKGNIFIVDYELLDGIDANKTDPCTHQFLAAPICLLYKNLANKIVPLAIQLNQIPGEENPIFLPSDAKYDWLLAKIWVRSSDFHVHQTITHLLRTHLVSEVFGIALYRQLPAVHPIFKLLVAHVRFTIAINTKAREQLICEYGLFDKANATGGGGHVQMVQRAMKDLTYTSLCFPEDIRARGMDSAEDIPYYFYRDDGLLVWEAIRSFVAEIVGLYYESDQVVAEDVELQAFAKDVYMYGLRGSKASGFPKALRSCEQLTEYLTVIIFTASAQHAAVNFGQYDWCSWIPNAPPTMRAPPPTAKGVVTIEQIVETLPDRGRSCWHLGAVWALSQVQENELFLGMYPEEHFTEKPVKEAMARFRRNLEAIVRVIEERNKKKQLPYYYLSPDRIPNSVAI
# Experimental: 5-Lipoxygenase inhibitory activity of the present compounds was determined by a method according to procedures described in "J. Biol. Chem., Vol. 256, pages 4156-4159, (1981, Ibid. Vol. 258, pages 5754-5758 (1983).
# (1) Preparation of Test Cells
# A guinea pig (Hartley strain) (500-650 g body weight) was intraperitoneally administered with 2%-casein solution in 3/50 the volume of body weight. 14 Hours after the administration, the animal was sacrificed by bleeding and the peritoneal cavity was washed with Dulbecco's phosphate buffered saline (PBS) containing 3 U/ml of heparin and the exudate cells were harvested. The sample of cells was washed twice with Dulbecco's PBS (-), then the cells were suspended in Dulbecco's PBS (-), containing 1 mM of calcium chloride and 5.5 mM of glucose, so as to make a suspension having the concentration of 2.5×10^7 cells/ml.
# To 0.2 ml of the above-mentioned cell suspension was added 10^-5 M of Indomethacine, and incubated at 30° C. for 2 minutes. Each of the appropriate concentrations of test compounds was added to the suspension respectively, further incubated for 2 minutes. Next, 10 μm of Ionophore A23187 (manufactured by Calbiochem-Behring, San Diego, Calif., U. S. A) was added to the suspension, further, 10 μm of ^14 C-arachidonic acid (manufactured by Amersham Japan, Ltd., Tokyo, Japan) was added and initiated the reaction. 3 Minutes after the initiation of the reaction, 0.1 ml of 0.2M-citric acid was added so as to terminate the reaction. 1.2 Milliliters of ethyl acetate was added to the reaction mixture and shaked for 5 minutes. The reaction mixture was centrifuged at 3,000 rpm for 5 minutes so as to separate the organic layer from the aqueous layer. 1 Milliliter of the organic layer (the upper layer) was dehydrated by passing through a mini-column packed with anhydrous sodium sulfate. The dehydrated organic layer was dried under nitrogen gas stream. The residue obtained was dissolved in ethyl acetate, and the total amount of the ethyl acetate solution was spotted onto thin layer chromochromatography (TCL) plate (Art. 11845 manufactured by E. Merck A. G.). The TCL was carried out with a mixed solvent of diethyl ether:petroleum:ether:acetic acid (50:50:1 volume/volume), then the radioactive metabolites on the plate were detected by using "Ultrafilm ^3 H" (a trademark for a X-ray film, manufactured by LKB Co.). Each fractions corresponding to the metabolites was scraped in to a scintillation vial, and 5 ml of "Scintilator ACS-II" (manufactured by Amersham Japan, Ltd.), was added then the radio-activity was determined by means of a liquid scintillation counter.
# [2] = test system: SRS-A release from lung fragments; experiment: Inhibition of SRS-A release from sensitized guinea pig lung fragments; type: cell-based, guinea pig (Hartley strain); conditions: Cavia porcellus
# Experimental: Inhibitory activities on the release of SRS-A and histamine of the present compounds were determined.
# A male guinea pig (Hartley strain) (body weight: about 300 g) was sensitized by a method according to P. Anderson: "Int. Archs. Allergey appln. Immunol., Vol. 64, pages 249-258 (1981). Thus, 30 mg/kg of cyclophosphamide was intraperitoneally administered to the guinea pig, and 2 days after 1 microgram of ovalbumin (manufactured by Sigma Chemical Co., St. Louis, Mo. U. S. A.) together with 10 mg of aluminium hydroxide gel were intraperitoneally administered so as to have the animal sesitized.
# 50 Days after the sesitization, the animal was killed by exsanguination, and the lung was isolated from the animal and was perfused with 20 ml of Tyrode's solution, then immersed in an ice-cooled Tyrode's solution. The parenchyma of the lung was cut by using McIlwain-type tissue chopper to make it into fragments of lung having 2 mm square and the fragments were washed with Tyrode's solution. 400 Milligrams of sectiles of lung were suspended in 3.6 ml of Tyrode's solution, and this suspension was preincubated at 37° C. for 5 minutes, then 4 microliters of dimethyl sulfoxide solution of the test compound, in the case of control 4 microliters of dimethyl sulfoxide alone was added to the suspension. 5 Minutes after, 0.4 ml of 100 micrograms/ml of ovalbumin solution added so as to release SRS-A for 10 minutes. The suspension was ice-cooled and filtered through gauze, the filtrate was centrifuged at 2,000 rpm for 10 minutes and the supernatant was collected. The supernatant was stored in freezed state at -80° C. until bio-assay was conducted.
# Amounts of SRS-A and histamine contained in the supernatant were determined by bio-assay using ileum of guinea pig.
# A piece of the ileum (2-3 cm of length) positioned from 15-25 cm from the opening portion of ileocecum was isolated from a male guinea pig (Hartley strain) (body weight: 400-600 g) which was fasted for 24 hours. The piece of ileum was hanged vertically in a Magnus tube which was filled with 10 ml of Tyrode's solution containing 10^-7 M of atropine sulfate under air stream conditions. The isotonic contraction of the piece of the ileum was measured at 0.5 g of load by using an isotonic transducer "TD-112S" (manufactured by Nihon Koden Co., Ltd.). The measurements were carried out after the reaction to histamine of the piece of ileum was kept constant. Bioassay of histamine was measured by using the value of contraction shown in 30 seconds after the addition of the supernatant. Bioassay of on SRS-A was measured by using the value of contraction shown at 2 minutes after the addition of the supernatant in the presence of 10^-6 M of pyrilamine (manufactured by Sigma Chemical Co.), and compared with the standard curve of crude SRS-A released from the fragments of the lung.
# [3] = Table 2, dose 3 μM, read-out: Inhibition ratio (%) SRS-A
# [4] = Table 2, dose 30 μM, read-out: Inhibition ratio (%) SRS-A
# [5] = Table 2B, read-out: Inhibitory activities on SRS-A (%)
inhibition at 3 µM [1] [%],inhibition at 1 µM [1] [%],inhibition at 0.3 µM [1] [%],inhibition at 0.1 µM [1] [%],Structure (SMILES),"inhibition at 1 µM [2, 5] [%]","inhibition at 10 µM [2, 5] [%]",also measured
86,86,24,17,"COC1=CC(=O)C(OC)=C(CCCCCCCC2OC2CCCCCCCC2=C(OC)C(=O)C=C(OC)C2=O)C1=O (centres unmarked) [Test Compound No. 5, 1,16-(2,5-Dimethoxy-1,4-benzoquinon-3-yl)-8,9-epoxyhexadecane]",,,
,58,29,7,"COC1=CC(=O)C(O)=C(CCCCCCC/C=C\CCCCCCCc2cc(O)c(C)c(O)c2)C1=O [Test Compound No. 6, 1-(2-Hydroxy-5-methoxy-1,4-benzoquinon-3-yl)-16-(4-methyl-3,5-dihydroxyphenyl)-Z-8-hexadecene]",,,
80,70,28,24,"COC1=CC(=O)C(O)=C(CCCCCCC/C=C\CCCCCCCc2cc(O)cc(O)c2)C1=O [Test Compound No. 7, 1-(2-Hydroxy-5-methoxy-1,4-benzoquinon-3-yl)-16-(3,5-dihydroxyphenyl)-Z-8-hexadecene]",,,
40,12,,,"CCCCCCCCCCCCCC1=C(OC)C(=O)C=C(OC)C1=O [Test Compound No. 8, 2,5-Dimethoxy-3-tridecanyl-1,4-benzoquinone]",,,inhibition at 10 µM [1]: 74%
,89,79,13,"COC1=C(C)C(=O)C(OC)=C(CCCCCC2=C(OC)C(=O)C(C)=C(OC)C2=O)C1=O [Test Compound No. 17, 2,2'-Pentamethylenebis(3,6-dimethoxy-5-methyl-1,4-benzoquinone)]",,,"inhibition at 3 µM [2, 3]: 56.3%; inhibition at 30 µM [2, 4]: 83.9%"
,87,74,48,"COC1=C(CCO)C(=O)C(OC)=C(CCCCCC2=C(OC)C(=O)C(CCO)=C(OC)C2=O)C1=O [Test Compound No. 19, 5,5'-Pentamethylenebis[2-(2-hydroxyethyl)-3,6-dimethoxy-1,4-benzoquinone]]",,,"inhibition at 3 µM [2, 3]: 40.6%; inhibition at 30 µM [2, 4]: 76.6%; inhibition at 3 µM ([2]; Table 2B, 3 μM, read-out: Inhibitory activities on SRS-A (%)): 40.6%; inhibition at 30 µM ([2]; Table 2B, 30 μM, read-out: Inhibitory activities on SRS-A (%)): 76.6%"

# Further lines, the compound ahead of its results:
Structure (SMILES),inhibition at 3 µM [1] [%],inhibition at 1 µM [1] [%],inhibition at 0.3 µM [1] [%],inhibition at 0.1 µM [1] [%],"inhibition at 1 µM [2, 5] [%]","inhibition at 10 µM [2, 5] [%]",also measured
"CCCC/C=C\CCCCCCCCCC1=CC(=O)C=C(OC)C1=O [Test Compound No. 1, 5-Methoxy-3-(Z-10-pentadecenyl)-1,4-benzoquinone]",13,10,,,,,inhibition at 30 µM [1]: 87%; inhibition at 10 µM [1]: 81%
"CCCC/C=C\CCCCCCCC1=C(O)C(=O)C=C(OC)C1=O [Test Compound No. 2, 5-Methoxy-2-hydroxy-3-(Z-8-tridecenyl)-1,4-benzoquinone]",,67,22,10,,,
"COC1=CC(=O)C(O)=C(CCCCCCC/C=C\CCCCCCCC2=C(O)C(=O)C(C)=C(OC)C2=O)C1=O [Test Compound No. 3, 1-(5-Methoxy-2-hydroxy-1,4-benzoquinon-3-yl)-16-(5-methoxy-2-hydroxy-6-methyl-1,4-benzoquinon-3-yl)-Z-8-hexadecene]",95,86,44,4,,,inhibition at 30 µM [1]: 96%; inhibition at 10 µM [1]: 97%
"COC1=CC(=O)C(O)=C(CCCCCCCC2OC2CCCCCCCC2=C(O)C(=O)C=C(OC)C2=O)C1=O (centres unmarked) [Test Compound No. 4, 1,16-bis(5-Methoxy-2-hydroxy-1,4-benzoquinon-3-yl)-8,9-epoxyhexadecane]",96,96,92,66,,,
"NC1=CC(=O)C(N)=C(CCCCCC2=C(N)C(=O)C=C(N)C2=O)C1=O [Test Compound No. 52, 2,2'-Pentamethylenebis(3,6-diamino-1,4-benzoquinone)]",,,,,10,16.2,
"COC1=CC(=O)C(OC)=C(CCCCCC2=C(OC)C(=O)C(OC)=C(OC)C2=O)C1=O [Test Compound No. 53, 2,3,5-Trimethoxy-6-[5-(2,5-dimethoxy-1,4-benzoquinon-3-yl)pentyl]-1,4-benzoquinone]",,,,,50.8,94.9,
"COC1=C(CCCCCC2=C(OC)C(=O)C(OC)=C(OC)C2=O)C(=O)C(OC)=C(OC)C1=O [Test Compound No. 54, 2,2'-Pentamethylenebis(3,5,6-trimethoxy-1,4-benzoquinone)]",,,,,32,88.7,
"CC1=C(C)C(=O)C(CCCCCC2=C(C)C(=O)C(C)=C(C)C2=O)=C(C)C1=O [Test Compound No. 55, 2,2'-Pentamethylenebis(3,5,6-trimethyl-1,4-benzoquinone)]",,,,,13.2,38.7,
COC1=CC(=O)C(OC)=C(CC2=C(OC)C(=O)C=C(OC)C2=O)C1=O [compound 22],,,,,37.6,85.4,
